Test results from US8895547B2, “Substituted phenyl-oxathiazine derivatives, method for producing them, drugs containing said compounds and the use thereof” (Sanofi, priority 2011, dated 2014).

Each molecule was assayed against T1, human 11β-HSD1 (Homo sapiens, UniProt P28845) (assay: Enzymatic 11beta-HSD1 test (SPA-based detection)). Conditions: human 11β-HSD1 microsome fraction, [1,2-3H]-cortisone, NADPH, 37° C. 1 hour.
T1 construct: host or cells: microsome fraction
T1 sequence (P28845 whole entry): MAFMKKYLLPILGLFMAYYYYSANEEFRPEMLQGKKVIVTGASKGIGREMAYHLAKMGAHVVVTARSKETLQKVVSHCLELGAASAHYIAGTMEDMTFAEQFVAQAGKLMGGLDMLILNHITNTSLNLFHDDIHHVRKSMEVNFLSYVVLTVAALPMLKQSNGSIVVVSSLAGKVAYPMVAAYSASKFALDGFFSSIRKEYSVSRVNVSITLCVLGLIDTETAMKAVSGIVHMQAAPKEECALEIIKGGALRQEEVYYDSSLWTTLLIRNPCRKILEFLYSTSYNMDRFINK
Assay type: biochemical
How it was run: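 Human 11β-HSD1 microsomes (0.2 µg protein) converted [1,2-3H]-cortisone ([…]) for 1 h at 37 °C. The reaction buffer was HEPES/KCl/NaCl/MgCl2 with 0.25 mM NADPH, with compounds added in DMSO. The reaction was stopped with SPA beads, anti-cortisol monoclonal antibody and 0.01 mM SSR110887; after 1 h at room temperature, [3H]-cortisol was scintillation-counted.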
`CN(C)c1cccc(-c2ccc(C3C(C)(C)OC(N[C@@H](CCO)c4ccccc4F)=NS3(=O)=O)cc2)n1` (stereo partly drawn) [Example 126, (S)-3-{5-[4-(6-Dimethylamino-pyridin-2-yl)-phenyl]-6,6-dimethyl-4,4-dioxo-5,6-dihydro-4H-4lambda6-[1,4,3]oxathiazin-2-ylamino}-3-(2-fluorophenyl)-propan-1-ol] gave an IC50 of 19 nM.
With `CC1(C)OC(N[C@@H](CCO)c2ccccc2F)=NS(=O)(=O)C1c1ccc(-c2ccnc(C#N)c2)cc1` (stereo partly drawn) [Example 127] the IC50 was 6 nM.
Molecule `CC1(C)OC(N[C@@H](CCO)c2ccccc2F)=NS(=O)(=O)C1c1ccc(-c2cc[nH]n2)cc1` (stereo partly drawn) [Example 128, (S)-3-{6,6-Dimethyl-4,4-dioxo-5-[4-(1H-pyrazol-3-yl)-phenyl]-5,6-dihydro-4H-4lambda6-[1,4,3]oxathiazin-2-ylamino}-3-(2-fluorophenyl)-propan-1-ol] has an IC50 of 10 nM.
`CC1(C)OC(N[C@@H](CCO)c2ccccc2F)=NS(=O)(=O)C1c1ccc(CN2CCOCC2)cc1` (stereo partly drawn) [Example 129, (S)-3-[6,6-Dimethyl-5-(4-morpholin-4-ylmethyl-phenyl)-4,4-dioxo-5,6-dihydro-4H-4lambda6-[1,4,3]oxathiazin-2-ylamino]-3-(2-fluorophenyl)-propan-1-ol] gave an IC50 of 18 nM.
Work on `CC1(C)OC(N[C@@H](CCO)c2ccccc2F)=NS(=O)(=O)C1c1ccc(Nc2ncccn2)cc1` (stereo partly drawn) [Example 130, (S)-3-{6,6-Dimethyl-4,4-dioxo-5-[4-(pyrimidin-2-ylamino)-phenyl]-5,6-dihydro-4H-4lambda6-[1,4,3]oxathiazin-2-ylamino}-3-(2-fluorophenyl)-propan-1-ol] yielded an IC50 of 20 nM.
Molecule `CC1(C)OC(N[C@@H](CCO)c2ccccc2F)=NS(=O)(=O)C1c1ccc(N2CCCC2=O)cc1` (stereo partly drawn) [Example 132, 1-(4-{2-[(S)-1-(2-fluorophenyl)-3-hydroxy-propylamino]-6,6-dimethyl-4,4-dioxo-5,6-dihydro-4H-4lambda6-[1,4,3]oxathiazin-5-yl}-phenyl)-pyrrolidin-2-one] has an IC50 of 14 nM.
Molecule `CN1CCN(c2cnc(-c3ccc(C4C(C)(C)OC(N[C@@H](CCO)c5ccccc5F)=NS4(=O)=O)cc3)cn2)CC1` (stereo partly drawn) [Example 133, (S)-3-{6,6-Dimethyl-5-[4-(4-methyl-3,4,5,6-tetrahydro-2H-[1,2′]bipyrazinyl-5′-yl)-phenyl]-4,4-dioxo-5,6-dihydro-4H-4lambda6-[1,4,3]oxathiazin-2-ylamino}-3-(2-fluorophenyl)-propan-1-ol] has an IC50 of 7 nM.
`CC1(C)OC(N[C@@H](CCO)c2ccccc2F)=NS(=O)(=O)C1c1ccc(-c2ccccn2)cc1` (stereo partly drawn) [Example 134, (S)-3-[6,6-Dimethyl-4,4-dioxo-5-(4-pyridin-2-yl-phenyl)-5,6-dihydro-4H-4lambda6-[1,4,3]oxathiazin-2-ylamino]-3-(2-fluorophenyl)-propan-1-ol] showed an IC50 of 11 nM.
`CC1(C)OC(N[C@@H](CCO)c2ccccc2F)=NS(=O)(=O)C1c1ccc(N2CCN(CCO)CC2)cc1` (stereo partly drawn) [Example 135] was tested, and the IC50 was 59 nM.
Molecule `CN1CCN(Cc2ccc(C3C(C)(C)OC(N[C@@H](CCO)c4ccccc4F)=NS3(=O)=O)cc2)CC1` (stereo partly drawn) [Example 136, (S)-3-{6,6-Dimethyl-5-[4-(4-methyl-piperazin-1-ylmethyl)-phenyl]-4,4-dioxo-5,6-dihydro-4H-4lambda6-[1,4,3]oxathiazin-2-ylamino}-3-(2-fluoro-phenyl)-propan-1-ol] has an IC50 of 63 nM.
`CN1CCN(CCOc2ccc(C3C(C)(C)OC(N[C@@H](CCO)c4ccccc4F)=NS3(=O)=O)cc2)CC1` (stereo partly drawn) [Example 137, (S)-3-(6,6-Dimethyl-5-{4-[2-(4-methyl-piperazin-1-yl)-ethoxy]-phenyl}-4,4-dioxo-5,6-dihydro-4H-4lambda6-[1,4,3]oxathiazin-2-ylamino)-3-(2-fluoro-phenyl)-propan-1-ol] was tested, and the IC50 was 70 nM.
Work on `CC1(C)OC(N[C@@H](CCO)c2ccccc2F)=NS(=O)(=O)C1c1ccc(N2CCN(C(C)(C)C)CC2)cc1` (stereo partly drawn) [Example 138, (S)-3-{5-[4-(4-tert-Butyl-piperazin-1-yl)-phenyl]-dimethyl-4,4-dioxo-5,6-dihydro-4H-4lambda6-[1,4,3]oxathiazin-2-ylamino}-3-(2-fluorophenyl)-propan-1-ol] yielded an IC50 of 61 nM.
In the case of `COc1ncc(-c2ccc(C3C(C)(C)OC(N[C@@H](CCO)c4ccccc4F)=NS3(=O)=O)cc2)cn1` (stereo partly drawn) [Example 139, (S)-3-(2-fluorophenyl)-3-{5-[4-(2-methoxy-pyrimidin-5-yl)-phenyl]-6,6-dimethyl-4,4-dioxo-5,6-dihydro-4H-4lambda6-[1,4,3]oxathiazin-2-ylamino}-propan-1-ol], the IC50 is reported as 5 nM.
`CC1(C)OC(N[C@@H](CCO)c2ccccc2F)=NS(=O)(=O)C1c1ccc(CCN2CCOCC2)cc1` (stereo partly drawn) [Example 140] gave an IC50 of 69 nM.
Molecule `CC1(C)OC(N[C@@H](CCO)c2ccccc2F)=NS(=O)(=O)C1c1ccc(N2C(=O)c3ccccc3C2=O)cc1` (stereo partly drawn) [Example 141, 2-(4-{2-[(S)-1-(2-fluorophenyl)-3-hydroxy-propylamino]-6,6-dimethyl-4,4-dioxo-5,6-dihydro-4H-4lambda6-[1,4,3]oxathiazin-5-yl}-phenyl)-isoindole-1,3-dione] has an IC50 of 14 nM.
`CC1(C)OC(N[C@@H](CCO)c2ccccc2F)=NS(=O)(=O)C1c1ccc(NC2CCN(C3CC3)CC2)cc1` (stereo partly drawn) [Example 142, (S)-3-{5-[4-(1-Cyclopropyl-piperidin-4-ylamino)-phenyl]-6,6-dimethyl-4,4-dioxo-5,6-dihydro-4H-4lambda6-[1,4,3]oxathiazin-2-ylamino}-3-(2-fluoro-phenyl)-propan-1-ol] showed an IC50 of 64 nM.
In the case of `CC1(C)OC(N[C@@H](CCO)c2ccccc2F)=NS(=O)(=O)C1c1ccc(C2CCN(CCC(F)(F)F)CC2)cc1` (stereo partly drawn) [Example 143, (S)-3-(6,6-Dimethyl-4,4-dioxo-5-{4-[1-(3,3,3-trifluoropropyl)-piperidin-4-yl]-phenyl}-5,6-dihydro-4H-4lambda6-[1,4,3]oxathiazin-2-ylamino)-3-(2-fluorophenyl)-propan-1-ol], the IC50 is reported as 13 nM.
`CC(=O)c1ccc(C2C(C)(C)OC(N[C@@H](CCO)c3ccccc3F)=NS2(=O)=O)cc1` (stereo partly drawn) [Example 144] gave an IC50 of 10 nM.
For `CN1CCN(c2ccc(-c3ccc(C4C(C)(C)OC(N[C@@H](CCO)c5ccccc5F)=NS4(=O)=O)cc3)cn2)CC1` (stereo partly drawn) [Example 145, (S)-3-(6,6-Dimethyl-5-{4-[6-(4-methyl-piperazin-1-yl)-pyridin-3-yl]-phenyl}-4,4-dioxo-5,6-dihydro-4H-4lambda6-[1,4,3]oxathiazin-2-ylamino)-3-(2-fluoro-phenyl)-propan-1-ol], the IC50 was 5 nM.
Work on `CC1(C)OC(N[C@@H](CCO)c2ccccc2F)=NS(=O)(=O)[C@H]1c1ccc(-c2ccc(C(N)=O)cc2)cc1` [Example 146, 4′-{(S)-2-[(S)-1-(2-fluorophenyl)-3-hydroxy-propylamino]-6,6-dimethyl-4,4-dioxo-5,6-dihydro-4H-4lambda6-[1,4,3]oxathiazin-5-yl}-biphenyl-4-carboxamide] yielded an IC50 of 8 nM.
For `CC1(C)OC(N[C@@H](CCO)c2ccccc2F)=NS(=O)(=O)[C@@H]1c1ccc(-c2ccc(C(N)=O)cc2)cc1` [Example 147, 4′-{(R)-2-[(S)-1-(2-fluorophenyl)-3-hydroxy-propylamino]-6,6-dimethyl-4,4-dioxo-5,6-dihydro-4H-4lambda6-[1,4,3]oxathiazin-5-yl}-biphenyl-4-carboxamide], the IC50 was 9 nM.
